Source: PMC10754118, “Lipophilic Nucleoside Triphosphate Prodrugs of Anti‐HIV Active Nucleoside Analogs as Potential Antiviral Compounds” (Advanced Science, 2023)
Where two headings read alike, the source gives them in different places.

Tests used:
[1] = Chemical hydrolysis in phosphate buffer saline (PBS, pH 7.3); type: physicochemical; conditions: PBS pH 7.3, 37 °C, read-out: PBS pH 7.3 t 1/2 (converted)
Method: (§1) Part 4. Chemical Hydrolysis of TriPPPro-compounds 10 and 20.
Second prepare 1.9 mM hydrolysis […]
(§2) Then, aliquots of 50 µL human

[2] = in vitro; conditions: human
Method: The hydrolysis properties of TriPPPro‐compounds 10 and 20 were evaluated in phosphate buffer saline (PBS, pH 7.3), pig liver esterase (PLE) or CEM/0 cell extracts. In both cases, hydrolysis products were analyzed by means of analytical RP18‐HPLC and the hydrolysis half‐lives (Table 1 , t1/2 ) of TriPPPro‐compounds 10 and 20 were calculated after complete consumption of the starting materials.
The hydrolysis of TriPPPro‐compounds 10 and 20 was carried out with CEM/0 cell extracts as well. […]
Part 6. Enzyme-Catalyzed Hydrolysis of TriPPPro-compounds 10 and 20 in CEM Cell […]
First prepare 3.0 mM hydrolysis solutions of Tri PPPro-compounds 10 and 20 in DMSO and H2O: 21 µL stock solution (50 mM in DMSO) and 154 µL DMSO, and 175 µL Milli-Q water. Three-twelve different samples (20 µL 3.0 mM hydrolysis solutions) were prepared in 2 mL Eppendorf® vials. Then, aliquots of 50 µL human CEM cell extracts were added to these samples and the reaction was started. The samples were incubated at 37 °C in a thermomixer for different time periods. The reaction was stopped by addition of 150 µL MeOH and kept on ice for 5 min. After centrifugation at 14,000 rpm for 12 min, the supernatants were filtered (Chromafil RC-20/15 MS, 0.2 μm) and stored in liquid nitrogen. When testing, aliquots of 60 µL (injection volume) were analyzed by analytical HPLC (HPLC Method). The calculation of t1/2 was obtained using Origin again.
(§3) Part 7. Hydrolysis of TriPPPro-compounds 10 and 20 in human plasma.
µL 3.0 mM hydrolysis solutions) were prepared in 2 mL Eppendorf® vials.

[3] = test system: pig liver esterase (PLE); test: Hydrolysis with pig liver esterase (PLE); type: in vitro ADME; conditions: pig liver esterase (PLE) in PBS, PLE in PBS pH 7.3, 37 °C, read-out: PLE t 1/2 (converted)
From the text: Next, TriPPPro‐compounds 10 and 20 were exposed to PLE in PBS (pH 7.3) and the half‐lives of TriPPPro‐compounds 10 and 20 are listed in Table 1. […] In contrast, the cleavage of the AB (C4) masking group in TriPPPro‐compounds 10by–hy and 10bz–hz was triggered by ester hydrolysis and yielded the corresponding γ‐alkylated nucleoside triphosphate derivatives 20 (Figure 3B,D) and 21 (Figures S17 and S18, Supporting Information), respectively. […] Moreover, a very small amount of NDPs was observed, probably due to a reaction involving a nucleophilic reaction at the γ‐phosphate or γ‐phosphonate moiety (pathways d and f, Scheme 5). […]
as §1
Second prepare 1.9 mM hydrolysis
Part 5. Hydrolysis of TriPPPro-compounds 10 and 20 with PLE .
Second, 125 µL DMSO and 833 µL
62.5 µL of PLE solution in PBS (100
mixture was stored in the freezer (- 30 °C).
by analytical HPLC (HPLC Method).
similar to that for the chemical hydrolysis studies. […]
as §2

[4] = in vitro; conditions: human, plasma
Method: First prepare 50 mM solutions of TriPPPro-compounds 10 and 20 in DMSO. […]
First prepare 3.0 mM hydrolysis solutions of Tri PPPro-compounds 10 and 20 in DMSO and H2O: 21 µL stock solution (50 mM in DMSO) and 154 µL DMSO, and 175 µL Milli-Q water. Three-twelve different samples (20 […]
The calculation of t1/2 was obtained using Origin again.
as §3
µL 3.0 mM hydrolysis solutions) were prepared in 2 mL Eppendorf® vials. Then, aliquots of 50 µL human Plasma (Heparin or Citrate) were added to these samples and the reaction was started. The samples were […]
incubated at 37 °C in a thermomixer for different time periods. The reaction was stopped by addition of 150 µL MeOH and kept on ice for 5 min. After centrifugation at 14,000 rpm for 22 min, the supernatants were filtered (Chromafil RC-20/15 MS, 0.2 μm) and stored in liquid nitrogen. When testing, aliquots of 25 0r 30 µL (injection volume) were analyzed by analytical HPLC (HPLC Method). The calculation of t1/2 was obtained using Origin […]
Part 8. Preparation of cell extracts and human plasma. […]

[5] = test system: HIV‐1 [HE]; test: Anti-HIV activity, HIV-1 in wild-type CEM/0 cells; type: cell-based; conditions: Human immunodeficiency virus 1, CCRF-CEM, read-out: Antiviral activity CEM/0 HIV‐1 [HE] EC50
[6] = test system: HIV‐2 [ROD]; test: Anti-HIV activity, HIV-2 in wild-type CEM/0 cells; type: cell-based; conditions: Human immunodeficiency virus 2, CCRF-CEM, read-out: Antiviral activity CEM/0 HIV‐2 [ROD] EC50
Method: (§4) Part 9. Anti-HIV activity assay.
(§5) The produce was used as previously reported. 5 Inhibition of HIV-1(IIIB)- and HIV-2(ROD)-induced cytopathogenicity in wild-type CEM/0 and thymidine kinase-deficient CEM/TK– cell cultures was measured in […]
(§6) containing appropriate dilutions of the test compounds. After 4−5 days of incubation at 37 °C in a CO2-controlled humidified atmosphere, CEM giant (syncytium) cell formation was examined microscopically. The […]
(§7) giant cell formation by 50%.
(§8) Part 10. Primer-extension assays. […]

[7] = test system: HIV‐2 [ROD)]; test: Anti-HIV activity, HIV-2 in thymidine kinase-deficient CEM/TK^− cells; type: cell-based
Method: as §4, §5, §6, §7, §8

[8] = in vitro; conditions: human, CEM/0 cells (wild-type CD4+ T-cells)
Method: All TriPPPro‐compounds 10 and 20, as well as their parent nucleosides and the corresponding NTPs, were evaluated for their antiviral activity (expressed as EC50 values) against HIV‐1 (wild‐type CEM/0 cells) and HIV‐2 (wild‐type CEM/0 cells and thymidine kinase‐deficient (CEM/TK^−) cells) with concomitant determination of cytotoxicity in the same cell line (Table 3 ).

[9] = wild-type CEM/0 cells, mean ±SD n = 2–3
[10] = Human immunodeficiency virus 2, CEM-TK(-), thymidine kinase-deficient CEM/TK^− cells, mean ±SD n = 2–3; read-out: Antiviral activity CEM/TK^− HIV‐2 [ROD)] EC50
[11] = t 1/2 in human plasma (over heparin and citrate plasma)

Compound | half-life at 1.9 mM [1] | half-life at 0.86 mM [2] | half-life at 0.45 mM [3] | half-life at 0.86 mM ([4]; Plasma (Citrate) t 1/2) | half-life at 0.86 mM ([4]; Plasma (Heparin) t 1/2) | EC50 [5, 9] | EC50 [6, 9] | EC50 [7, 10] | CC50 [8] | half-life at 0.86 mM [4, 11] | EC50 [5] | EC50 [6] | EC50 ([7]; Human immunodeficiency virus 2, CEM-TK(-), read-out: Antiviral activity CEM/TK^− HIV‐2 [ROD)] EC50)
CCCCCCCCCCCCCCCCCCOP(=O)(O)OP(=O)(O)OP(=O)(O)OCC1OC(n2cc(C)c(=O)[nH]c2=O)CC1N=[N+]=[N-] (centres unmarked) [20b, γ‐(alkyl‐C18)‐AZTTP] | > 83.3 days | > 30 h | > 150 h | > 20 h | 3.7 h | 28 ± 31 nM | 30 ± 1 nM | 4100 ± 2600 nM | > 100000 nM | – | – | – | –
CCCCCCCCCCCCCCCCCCP(=O)(OCCCC)OP(=O)(O)OP(=O)(O)OC[C@@H]1C=C[C@H](n2cnc3c(NC4CC4)nc(N)nc32)C1 (some centres unmarked) [10hx] | > 41.7 days | > 10 h | > 150 h | > 20 h | > 20 h | – | – | – | 38600 nM | > 8 h | 150 ± 140 nM | 44 ± 33 nM | 5.8 nM
CCCCCCCCCCCCCCCCCCP(=O)(OCc1ccc(OC(=O)CCCC)cc1)OP(=O)(O)OP(=O)(O)OC[C@H]1O[C@@H](n2cc(C)c(=O)[nH]c2=O)C[C@@H]1N=[N+]=[N-] (some centres unmarked) [10bz, γ‐(AB‐C4)‐γ‐C‐(alkyl‐C18)‐AZTTP] | 41 days | 8 h | 0.25 h | 4.4 h | 7.6 h | 150 ± 150 nM | 7.5 ± 8.1 nM | 310 ± 26 nM | 58900 nM | 4.4 to 7.6 h | – | – | –
CCCCCCCCCCCCCCCCCCOP(=O)(OCc1ccc(OC(=O)CCCC)cc1)OP(=O)(O)OP(=O)(O)OCC1OC(n2cc(C)c(=O)[nH]c2=O)CC1N=[N+]=[N-] (centres unmarked) [10by, γ‐(AB‐C4;alkyl‐C18)‐AZTTP] | 17.4 days | 3.3 h | 0.22 h | 3.7 h | 5.2 h | 190 ± 120 nM | 5.2 ± 4.1 nM | 500 ± 350 nM | 60100 nM | – | – | – | –
CCCCCCCCCCCCCCCCCCOP(=O)(O)OP(=O)(O)OP(=O)(O)OC[C@H]1O[C@@H](n2ccc(=O)[nH]c2=O)C[C@@H]1F [20e, γ‐C18‐FddUTP] | > 83.3 days | > 20 h | > 150 h | – | – | 92 ± 82 nM | 390 ± 300 nM | 3560 ± 1880 nM | 63700 ± 13600 nM | – | – | – | –
CCCCCCCCCCCCCCCCCCOP(=O)(O)OP(=O)(O)OP(=O)(O)OC[C@H]1O[C@@H](n2cc(Cl)c(=O)[nH]c2=O)C[C@@H]1F [20d] | > 83.3 days | > 20 h | > 150 h | – | – | 3140 ± 2930 nM | 2240 ± 650 nM | 62100 nM | > 100000 nM | – | – | – | –
CCCCCCCCCCCCCCCCCCP(=O)(OCc1ccc(OC(=O)CCCC)cc1)OP(=O)(O)OP(=O)(O)OC[C@H]1O[C@@H](n2cc(Cl)c(=O)[nH]c2=O)C[C@@H]1F (some centres unmarked) [10dz] | 27.9 days | > 10 h | 1.3 h | – | – | 2020 ± 800 nM | 510 ± 140 nM | 4660 ± 3420 nM | 54900 nM | – | – | – | –
CCCCCCCCCCCCCCCCCCOP(=O)(OCc1ccc(OC(=O)CCCC)cc1)OP(=O)(O)OP(=O)(O)OC[C@H]1O[C@@H](n2cc(Cl)c(=O)[nH]c2=O)C[C@@H]1F (some centres unmarked) [10dy] | 18.5 days | 2.9 h | 0.19 h | – | – | 7320 ± 2280 nM | 1950 ± 860 nM | 2530 ± 1380 nM | 52100 nM | – | – | – | –
CCCCCCCCCCCCCCCCCCOP(=O)(OCc1ccc(OC(=O)CCCC)cc1)OP(=O)(O)OP(=O)(O)OC[C@@H]1O[C@H](n2cc(F)c(N)nc2=O)CS1 (some centres unmarked) [10cy, γ‐(AB‐C4;alkyl‐C18)‐FTCTP] | 10.5 days | 3.4 h | 0.24 h | – | – | 140 ± 65 nM | 180 ± 150 nM | 62 ± 59 nM | 51900 nM | – | – | – | –
CCCCCCCCCCCCCCCCCCOP(=O)(O)OP(=O)(O)OP(=O)(O)OC[C@@H]1O[C@H](n2cc(F)c(N)nc2=O)CS1 [20c, γ‐C18‐FTCTP] | > 83.3 days | > 30 h | > 150 h | – | – | 350 ± 250 nM | 220 ± 20 nM | 51 ± 69 nM | 63400 ± 13700 nM | – | – | – | –
